The conditions of test [1]: cited from earlier work.
Test [2] concerns the target T1, PTH receptor (Rattus norvegicus, UniProt P25961).
T1 construct: endogenous in cells; host or cells: UMR 106-H5 rat osteosarcoma cells
T1 sequence (P25961 27-591): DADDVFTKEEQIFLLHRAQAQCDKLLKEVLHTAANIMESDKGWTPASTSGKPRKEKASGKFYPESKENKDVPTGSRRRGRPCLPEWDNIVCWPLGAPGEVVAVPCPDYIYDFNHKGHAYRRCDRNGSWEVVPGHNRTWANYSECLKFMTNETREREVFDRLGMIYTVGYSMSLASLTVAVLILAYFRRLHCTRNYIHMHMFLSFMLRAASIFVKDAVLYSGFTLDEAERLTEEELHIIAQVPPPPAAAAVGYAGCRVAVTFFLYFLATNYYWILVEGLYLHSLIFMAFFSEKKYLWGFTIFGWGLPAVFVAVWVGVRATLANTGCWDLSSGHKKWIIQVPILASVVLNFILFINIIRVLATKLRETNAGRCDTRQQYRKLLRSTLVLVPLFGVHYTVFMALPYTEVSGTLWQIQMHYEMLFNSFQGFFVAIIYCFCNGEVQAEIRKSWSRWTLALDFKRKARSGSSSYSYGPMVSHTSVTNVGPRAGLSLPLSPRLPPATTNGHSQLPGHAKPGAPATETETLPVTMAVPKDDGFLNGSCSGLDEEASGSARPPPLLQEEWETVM
In kind it is cell-based. The conditions noted are these: for BONE CELLS Rat(UMR-106) Activity (AC): Table 5A, intact cells, hPTH(1-34) = 100. On the procedure:
(§1) Assays were conducted using UMR-160-H5 cells. These assays were performed as described in Cohen et al. (1991), J. Biological Chem., 266(3), 1997 and in the Experimental section, e.g. Example 11. Receptor binding assays were carried out in canine renal plasma membranes and in UMR 106-H5 rat osteosarcoma cells as previously described in detail (Ref. 14,32), using ^125 I-labeled PTH(1-34)amide as the radioligand. Binding potency (IC50) was quantified as the concentration of unlabeled peptide required for half-maximal displacement of the radioligand. […] Adenylate cyclase activity was assessed in canine renal membranes by the conversion of [α-32p ] ATP to [^32 P] cyclic AMP, essentially as described, except for the addition of 100 micromolar GTP (Ref. 33,34). Adenylate cyclase activity in UMR 106-H5 cells was assessed essentially as described (Ref. 35). In brief, cells were incubated with [3H]adenine 1 micro Ci/ml of serum-free MEM for two hours at 37° C. to label the endogenous ATP pool. Cells were then exposed to 0.4 mM IBMX for 10 min, followed by the appropriate peptide for an additional 10 min at ambient temperature. The cells are then scraped in 20% TCA, and [3H]cyclic AMP is isolated by the column procedure of Salomon et al. (Ref. 36). Potency in the adenylate cyclase assays (Ka) is the concentration of peptide producing half-maximal enzyme activation.

Test [3] concerns the target T2, PTH receptor (Canis lupus familiaris, UniProt Q9TU31).
T2 construct: canine renal plasma membranes; from tissue; host or cells: canine kidney (renal plasma membranes)
T2 sequence (Q9TU31 29-595): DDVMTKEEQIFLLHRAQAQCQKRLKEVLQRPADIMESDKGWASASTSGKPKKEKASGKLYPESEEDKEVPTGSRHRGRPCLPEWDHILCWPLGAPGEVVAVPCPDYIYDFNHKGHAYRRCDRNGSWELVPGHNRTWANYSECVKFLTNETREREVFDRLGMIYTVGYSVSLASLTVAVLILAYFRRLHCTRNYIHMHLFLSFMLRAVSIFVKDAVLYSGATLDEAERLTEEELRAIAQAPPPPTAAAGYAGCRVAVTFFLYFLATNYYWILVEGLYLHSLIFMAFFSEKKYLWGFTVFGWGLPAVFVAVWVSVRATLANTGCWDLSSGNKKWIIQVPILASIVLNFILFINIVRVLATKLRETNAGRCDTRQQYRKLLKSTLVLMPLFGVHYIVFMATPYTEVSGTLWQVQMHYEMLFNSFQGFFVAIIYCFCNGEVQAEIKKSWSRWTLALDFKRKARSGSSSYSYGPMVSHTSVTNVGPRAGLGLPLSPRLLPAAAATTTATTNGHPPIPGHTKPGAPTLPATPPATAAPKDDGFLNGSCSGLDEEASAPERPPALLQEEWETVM
Type of test: biochemical, canine. The conditions noted are these: for RENAL MEMBRANES Canine Activity (AC): Table 5B, hPTH(1-34) = 100. The method, then: as §1, with “Receptor” for “Assays were conducted using UMR-160-H5 cells. These assays were performed as described in Cohen et al. (1991), J. Biological Chem., 266(3), 1997 and in the Experimental section, e.g. Example 11. Receptor”

In test [4] the target is T3, PTH receptor (Homo sapiens, UniProt Q03431).
T3 sequence (Q03431 27-593): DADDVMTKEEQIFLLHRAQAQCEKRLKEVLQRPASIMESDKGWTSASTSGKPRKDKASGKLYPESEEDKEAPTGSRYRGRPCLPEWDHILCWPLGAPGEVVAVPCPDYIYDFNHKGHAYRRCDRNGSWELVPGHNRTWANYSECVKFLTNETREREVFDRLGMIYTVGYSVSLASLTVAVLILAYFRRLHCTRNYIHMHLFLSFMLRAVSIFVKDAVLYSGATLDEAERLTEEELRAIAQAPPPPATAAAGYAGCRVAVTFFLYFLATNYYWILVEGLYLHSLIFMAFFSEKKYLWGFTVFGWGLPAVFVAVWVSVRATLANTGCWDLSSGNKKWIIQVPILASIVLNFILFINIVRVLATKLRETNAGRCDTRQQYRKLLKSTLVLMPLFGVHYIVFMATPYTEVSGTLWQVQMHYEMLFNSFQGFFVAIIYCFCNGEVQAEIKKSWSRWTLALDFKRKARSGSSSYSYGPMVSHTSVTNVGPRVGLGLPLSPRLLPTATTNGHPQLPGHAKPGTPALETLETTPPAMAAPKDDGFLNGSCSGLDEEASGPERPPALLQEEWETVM
Type of test: cell-based. Also on record: In intact rat (UMR-106) and human (SaOS-2) bone cell lines; endogenous in cells; host or cells: SaOS-2 human bone (osteosarcoma) cells. An excerpt: The renal membrane assay values listed reflect the effect of the polypeptide analogue with kidney tissue receptors. The UMR-106-H5 assay values reflect the effect of the peptide analogue with rat bone tissue receptors. The Sa05-2 assay values reflect the effect of the peptides for human bone tissue receptors.

In test [5] the test system is PTH receptor.
Test [6] addresses T3, PTH receptor.
For test [7], the target named is T1, PTH receptor. In kind it is binding. On the procedure: as §1, with “Receptor” for “Assays were conducted using UMR-160-H5 cells. These assays were performed as described in Cohen et al. (1991), J. Biological Chem., 266(3), 1997 and in the Experimental section, e.g. Example 11. Receptor”
Test [8] addresses T2, PTH receptor. In kind it is binding, canine. The method, then:
as §1, with “Receptor” for “Assays were conducted using UMR-160-H5 cells. These assays were performed as described in Cohen et al. (1991), J. Biological Chem., 266(3), 1997 and in the Experimental section, e.g. Example 11. Receptor”

Where [9] appears, read: Table 5A, intact cells, hPTH(1-34) = 100.

Read-outs that look alike come from different tables or passages of the source.

As for [Gln^22, Lys^28, Leu^30 hPTH(1-34), in test [1] (Ref. 49, 50), the “loss of biological activity” value is given as 10-50 fold.

For the molecule `CC[C@H](C)[C@H](NC(=O)[C@H](CCC(=O)O)NC(=O)[C@H](Cc1c[nH]cn1)NC(=O)[C@@H](NC(=O)[C@@H](N)CO)C(C)C)C(=O)N[C@@H](CCC(N)=O)C(=O)N[C@@H](CC(C)C)C(=O)N[C@@H](CCSC)C(=O)N[C@@H](Cc1c[nH]cn1)C(=O)N[C@@H](CC(N)=O)C(=O)N[C@@H](CC(C)C)C(=O)NCC(=O)N[C@@H](CCCCN)C(=O)N[C@@H](Cc1c[nH]cn1)C(=O)N[C@@H](CC(C)C)C(=O)N[C@@H](CC(N)=O)C(=O)N[C@@H](CO)C(=O)N[C@@H](CCSC)C(=O)N[C@@H](CCC(=O)O)C(=O)N[C@@H](CCCNC(=N)N)C(=O)N[C@H](C(=O)N[C@@H](CCC(=O)O)C(=O)N[C@@H](Cc1c[nH]c2ccccc12)C(=O)N[C@@H](CC(C)C)C(=O)N[C@@H](CCCNC(=N)N)C(=O)N[C@@H](CCCCN)C(=O)N[C@@H](CCCCN)C(=O)N[C@@H](CC(C)C)C(=O)N[C@@H](CCC(N)=O)C(=O)N[C@@H](CC(=O)O)C(=O)N[C@H](C(=O)N[C@@H](Cc1c[nH]cn1)C(=O)N[C@@H](CC(N)=O)C(=O)N[C@@H](Cc1ccccc1)C(=O)O)C(C)C)C(C)C` [[his^3]hPTH(1-34), [his^3]HPTH(1-34)], at PTH receptor [2], the “BONE CELLS Rat(UMR-106) Potency (AC)” value is 4% and the “BONE CELLS Rat(UMR-106) Activity (AC)” value stood at 100%. Moreover, at PTH receptor [3], the “RENAL MEMBRANES Canine Potency (AC)” value turned out to be 1% and the “RENAL MEMBRANES Canine Activity (AC)” value turned out to be 43%. Besides, the “BONE CELLS Human(SaOS-2) Potency (AC)” value at PTH receptor [4] is 5%. Besides, the “BONE CELLS Human(SaOS-2) Activity (AC)” value on PTH receptor [4] (setting [9]) is 100%. Further, the “KIDNEY CELLS (CK) Potency (AC)” value in the test with PTH receptor [5] was found to be 13%. Further, on PTH receptor [6], the “BONE CELL MEMBRANES Human SaOS-2 Potency (AC)” value was 11%. Besides, the “BONE CELL MEMBRANES Human SaOS-2 Activity (AC)” value on PTH receptor [6] (Table 5B, hPTH(1-34) = 100) was 14%. Further, in the test with PTH receptors, the “KIDNEY CELLS (CK) Potency (B)” value was determined as 6% and the “potency of native [ser^3]HPTH(1-34) retained in binding to PTH receptors” value is recorded as 5-15%. For the same molecule, the “BONE CELLS Rat(UMR-106) Potency (B)” value at PTH receptor [7] is recorded as 1%. Moreover, the “RENAL MEMBRANES Canine Potency (B)” value at PTH receptor [8] amounted to 4%.

In the case of `CC[C@H](C)[C@H](NC(=O)[C@H](CCC(=O)O)NC(=O)[C@H](CO)NC(=O)[C@@H](NC(=O)[C@@H](N)CO)C(C)C)C(=O)N[C@@H](CCC(N)=O)C(=O)N[C@@H](CC(C)C)C(=O)N[C@@H](CCSC)C(=O)N[C@@H](Cc1c[nH]cn1)C(=O)N[C@@H](CC(N)=O)C(=O)N[C@@H](CC(C)C)C(=O)NCC(=O)N[C@@H](CCCCN)C(=O)N[C@@H](Cc1c[nH]cn1)C(=O)N[C@@H](CC(C)C)C(=O)N[C@@H](CC(N)=O)C(=O)N[C@@H](CO)C(=O)N[C@@H](CCSC)C(=O)N[C@@H](CCC(=O)O)C(=O)N[C@@H](CCCNC(=N)N)C(=O)N[C@H](C(=O)N[C@@H](CCC(=O)O)C(=O)N[C@@H](Cc1c[nH]c2ccccc12)C(=O)N[C@@H](CC(C)C)C(=O)N[C@@H](CCCNC(=N)N)C(=O)N[C@@H](CCCCN)C(=O)N[C@@H](CCCCN)C(=O)N[C@@H](CC(C)C)C(=O)N[C@@H](CCC(N)=O)C(=O)N[C@@H](CC(=O)O)C(=O)N[C@H](C(=O)N[C@@H](Cc1c[nH]cn1)C(=O)N[C@@H](CC(N)=O)C(=O)N[C@@H](Cc1ccccc1)C(=O)O)C(C)C)C(C)C` [hPTH (1-34), hPTH(1-34), reference compound], on PTH receptor [2], the “BONE CELLS Rat(UMR-106) Potency (AC)” value is listed as 100%, the “UMR106-H5 CELLS Rat Bone Potency (AC)” value turned out to be 100% and the “BONE CELLS Rat(UMR-106) Activity (AC)” value is recorded as 100%. Also, the “UMR106-H5 CELLS Rat Bone Activity (AC*)” value on PTH receptor [2] (Table 1(A), relative to hPTH(1-34) = 100%) turned out to be 100%. For the same molecule, on PTH receptor [3], the “RENAL MEMBRANES Canine Potency (AC)” value amounted to 100% and the “RENAL MEMBRANES Canine Activity (AC)” value was 100%. Moreover, on PTH receptor [3] (Table 1(A), large doses, relative to hPTH(1-34) = 100%), the “RENAL MEMBRANES Canine Activity (AC*)” value was 100%. In the test with PTH receptor [5] (setting [9]), the “KIDNEY CELLS (CK) Potency (AC)” value was determined as 100%. The “KIDNEY CELLS (CK) Potency (B)” value with PTH receptors (setting [9]) was found to be 100%. Moreover, on PTH receptor [7], the “BONE CELLS Rat(UMR-106) Potency (B)” value is recorded as 100% and the “UMR106-H5 CELLS Rat Bone Potency (B)” value is given as 100%. Further, the “RENAL MEMBRANES Canine Potency (B)” value at PTH receptor [8] is given as 100%.

Take [SOMet^18 ]bPTH(1-84): the “activity of the native hormone retained” value in test [1] (Ref. 49) was approximately 50%.

Source of the values: patent US5849695A, “Parathyroid hormone analogues useful for treatment of osteoporosis and disorders of calcium meatabolism in mammals” (The Regents of the University of California, priority 1993, dated 1998).
